Reference: US8247211B2, “Glycopeptide antibiotics” (American Cyanamid Company, priority 2001, dated 2012)

Experiments:
Assay in all cases: In vitro antibacterial evaluation: minimum inhibitory concentration (MIC), broth dilution method
Assay type in all cases: cell-based
Escherichia coli = details: broth dilution, 18 hours at 35° C.
Enterococcus sp. = details: broth dilution, 18 hours at 35° C.
In short: (§1)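 NCCLS M7-A2 broth dilution with Mueller-Hinton II, testing 64-0.06 μg/mL antibiotic against 5×10^5 CFU/mL inocula. Test strains include recent methicillin-, penicillin- or vancomycin-resistant clinical isolates. MIC is the lowest concentration preventing growth.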

Staphylococcus sp. = details: broth dilution, 18 hours at 35° C.; for MIC Staphylococcus aureus-SMITH (GC 4543): strain SMITH GC 4543
In short: as §1

Streptococcus sp. = details: broth dilution, 18 hours at 35° C.
In short: as §1

[1] = Enterococcus faecalis (ATCC 29212)
[2] = Enterococcus faecalis (GC 2242)
[3] = Enterococcus faecalis (GC 2691)
[4] = Enterococcus faecalis (GC 3059)
[5] = Enterococcus faecalis (GC 4552)
[6] = Enterococcus faecalis (GC 4553)
[7] = Enterococcus faecalis (GC 4554)
[8] = Enterococcus faecalis (GC 6189)
[9] = Streptococcus agalactiae (GC 4564)
[10] = Streptococcus pneumoniae (ATCC 6301)
[11] = Streptococcus pneumoniae (GC 1894)
[12] = Streptococcus pneumoniae (GC 4565)
[13] = Streptococcus pyogenes (GC 4563)

CC(c1ccccc1)C1NC(=O)CNC(=O)C(CO)NC(=O)C(C(O)C2CNC(=N)N2C2OC(CO)C(O)C(O)C2O)NC(=O)C(C(O)C2CNC(=N)N2)NC(=O)C(Cc2ccc3oc(SCc4ccc(-c5ccccc5)cc4)nc3c2)NC1=O (stereo not shown) [Example 47]
2 µg/mL: MIC Enterococcus avium (GC 4558) (Enterococcus sp.; Enterococcus avium (GC 4558)) | MIC Enterococcus avium (GC 4558) (Enterococcus sp.) | MIC Coagulase Negative Staphylococcus (GC 4548) (Staphylococcus sp.) | MIC Streptococcus agalactiae (GC 4564) (Streptococcus sp.; [9]) | MIC Streptococcus pneumoniae (GC 1894) (Streptococcus sp.; [11]) | MIC Streptococcus agalactiae (GC 4564) (Streptococcus sp.) | MIC Streptococcus pneumoniae (GC 1894) (Streptococcus sp.)
>64 µg/mL: MIC Escherichia coli (ATCC 25922) (Escherichia coli) | MIC Escherichia coli (GC 4559) (Escherichia coli)
16 µg/mL: MIC Enterococcus faecalis (GC 4552) (Enterococcus sp.; [5]) | MIC Enterococcus faecalis (GC 4552) (Enterococcus sp.) | MIC Coagulase Negative Staphylococcus (GC 4547) (Staphylococcus sp.)
4 µg/mL: MIC Enterococcus faecalis (GC 2242) (Enterococcus sp.; [2]) | MIC Enterococcus faecalis (GC 4553) (Enterococcus sp.; [6]) | MIC Enterococcus faecium (GC 2243) (Enterococcus sp.; Enterococcus faecium (GC 2243)) | MIC Enterococcus faecium (GC 4557) (Enterococcus sp.; Enterococcus faecium (GC 4557)) | MIC Enterococcus faecalis (GC 2242) (Enterococcus sp.) | MIC Enterococcus faecalis (GC 4553) (Enterococcus sp.) | MIC Enterococcus faecium (GC 2243) (Enterococcus sp.) | MIC Enterococcus faecium (GC 4557) (Enterococcus sp.) | MIC Streptococcus pneumoniae (ATCC 6301) (Streptococcus sp.; [10]) | MIC Streptococcus pneumoniae (ATCC 6301) (Streptococcus sp.)
1 µg/mL: MIC Streptococcus pyogenes (GC 4563) (Streptococcus sp.; [13]) | MIC Streptococcus pyogenes (GC 4563) (Streptococcus sp.)
0.5 µg/mL: MIC Coagulase Negative Staphylococcus (GC 4549) (Staphylococcus sp.)
32 µg/mL: MIC Escherichia coli (GC 4560) (Escherichia coli) | MIC Enterococcus faecalis (GC 2691) (Enterococcus sp.; [3]) | MIC Enterococcus faecalis (GC 3059) (Enterococcus sp.; [4]) | MIC Enterococcus faecalis (GC 6189) (Enterococcus sp.; [8]) | MIC Enterococcus faecalis (GC 2691) (Enterococcus sp.) | MIC Enterococcus faecalis (GC 3059) (Enterococcus sp.) | MIC Enterococcus faecalis (GC 6189) (Enterococcus sp.)
8 µg/mL: MIC Enterococcus faecalis (ATCC 29212) (Enterococcus sp.; [1]) | MIC Enterococcus faecium (GC 4556) (Enterococcus sp.; Enterococcus faecium (GC 4556)) | MIC Enterococcus faecalis (ATCC 29212) (Enterococcus sp.) | MIC Enterococcus faecium (GC 4556) (Enterococcus sp.) | MIC Coagulase Negative Staphylococcus (GC 4551) (Staphylococcus sp.) | MIC Staphylococcus aureus SMITH (GC 4543) (Staphylococcus sp.) | MIC Staphylococcus haemolyticus (GC 4546) (Staphylococcus sp.) | MIC Staphylococcus aureus-SMITH (GC 4543) (Staphylococcus sp.) | MIC Streptococcus pneumoniae (GC 4565) (Streptococcus sp.; [12]) | MIC Streptococcus pneumoniae (GC 4565) (Streptococcus sp.)
64 µg/mL: MIC Enterococcus faecalis (GC 4554) (Enterococcus sp.; [7]) | MIC Enterococcus faecalis (GC 4554) (Enterococcus sp.)

CC(c1ccccc1)C1NC(=O)CNC(=O)C(CO)NC(=O)C(C(O)C2CNC(=N)N2C2OC(CO)C(O)C(O)C2O)NC(=O)C(C(O)C2CNC(=N)N2)NC(=O)C(Cc2ccc3oc(SCC(=O)c4ccccc4)nc3c2)NC1=O (stereo not shown) [Example 48]
32 µg/mL: MIC Escherichia coli (ATCC 25922) (Escherichia coli) | MIC Escherichia coli (GC 4559) (Escherichia coli) | MIC Streptococcus pneumoniae (GC 4565) (Streptococcus sp.; [12]) | MIC Streptococcus pneumoniae (GC 4565) (Streptococcus sp.)
64 µg/mL: MIC Enterococcus faecalis (ATCC 29212) (Enterococcus sp.; [1]) | MIC Enterococcus faecalis (GC 2242) (Enterococcus sp.; [2]) | MIC Enterococcus faecalis (GC 2691) (Enterococcus sp.; [3]) | MIC Enterococcus faecalis (GC 3059) (Enterococcus sp.; [4]) | MIC Enterococcus faecalis (GC 4552) (Enterococcus sp.; [5]) | MIC Enterococcus faecalis (GC 4554) (Enterococcus sp.; [7]) | MIC Enterococcus faecalis (GC 6189) (Enterococcus sp.; [8]) | MIC Enterococcus faecium (GC 4556) (Enterococcus sp.; Enterococcus faecium (GC 4556)) | MIC Enterococcus faecalis (ATCC 29212) (Enterococcus sp.) | MIC Enterococcus faecalis (GC 2242) (Enterococcus sp.) | MIC Enterococcus faecalis (GC 2691) (Enterococcus sp.) | MIC Enterococcus faecalis (GC 3059) (Enterococcus sp.) | MIC Enterococcus faecalis (GC 4552) (Enterococcus sp.) | MIC Enterococcus faecalis (GC 4554) (Enterococcus sp.) | MIC Enterococcus faecalis (GC 6189) (Enterococcus sp.) | MIC Enterococcus faecium (GC 4556) (Enterococcus sp.)
16 µg/mL: MIC Enterococcus faecalis (GC 4553) (Enterococcus sp.; [6]) | MIC Enterococcus faecium (GC 2243) (Enterococcus sp.; Enterococcus faecium (GC 2243)) | MIC Enterococcus faecalis (GC 4553) (Enterococcus sp.) | MIC Enterococcus faecium (GC 2243) (Enterococcus sp.) | MIC Coagulase Negative Staphylococcus (GC 4551) (Staphylococcus sp.) | MIC Staphylococcus aureus SMITH (GC 4543) (Staphylococcus sp.) | MIC Staphylococcus aureus-SMITH (GC 4543) (Staphylococcus sp.) | MIC Streptococcus agalactiae (GC 4564) (Streptococcus sp.; [9]) | MIC Streptococcus pneumoniae (ATCC 6301) (Streptococcus sp.; [10]) | MIC Streptococcus agalactiae (GC 4564) (Streptococcus sp.) | MIC Streptococcus pneumoniae (ATCC 6301) (Streptococcus sp.)
8 µg/mL: MIC Enterococcus avium (GC 4558) (Enterococcus sp.; Enterococcus avium (GC 4558)) | MIC Enterococcus avium (GC 4558) (Enterococcus sp.) | MIC Coagulase Negative Staphylococcus (GC 4548) (Staphylococcus sp.) | MIC Staphylococcus haemolyticus (GC 4546) (Staphylococcus sp.) | MIC Streptococcus pneumoniae (GC 1894) (Streptococcus sp.; [11]) | MIC Streptococcus pyogenes (GC 4563) (Streptococcus sp.; [13]) | MIC Streptococcus pneumoniae (GC 1894) (Streptococcus sp.) | MIC Streptococcus pyogenes (GC 4563) (Streptococcus sp.)
4 µg/mL: MIC Escherichia coli (GC 4560) (Escherichia coli) | MIC Enterococcus faecium (GC 4557) (Enterococcus sp.; Enterococcus faecium (GC 4557)) | MIC Enterococcus faecium (GC 4557) (Enterococcus sp.) | MIC Coagulase Negative Staphylococcus (GC 4547) (Staphylococcus sp.) | MIC Coagulase Negative Staphylococcus (GC 4549) (Staphylococcus sp.)
